For 9 compounds, CC50 results are on record in patent US20220305115A1 (JANSSEN SCIENCES IRELAND UNLIMITED COMPANY, priority 2019, published 2022).

What all share (assay type): cell-based
A short description of data set [1]: Off-target cytotoxicity, MRC-5 cells (Cell Titer Glo, 5 days). The settings on record: human, MRC-5 cells; MRC-5, five days incubation, intracellular ATP; read-out: CC50 MHCS CTG 50. The text has this: (§1) To assess potential off-target toxicity of certain compounds disclosed herein, the in vitro cytotoxicity of those compounds was profiled using a panel of 5 cell lines with various tissue origins. Compound cytotoxicity was examined in hepatoma-derived Huh-7 and HepG2 cells, prostate carcinoma-derived PC-3 cells, lymphoma derived MT-4 cells and a normal diploid lung cell line MRC-5. HepG2 and PC-3 cells used were adapted to grow in glucose-free galactose-containing medium. These cells have a relatively higher sensitivity to inhibitors of mitochondrial oxidative phosphorylation compared to the same cells maintained in standard glucose-containing culture medium (Marroquin et al., Toxicol. Sci. 2007; 97 (2):539-47). Cell viability was determined by measuring intracellular ATP levels following five days of continuous incubation with test compounds.
(§2) The human hepatoma Huh-7 cell line was obtained from ReBLikon GmbH (Mainz, Germany) {20879}. The MT-4 cell line (HTLV-1 transformed, human T lymphoblastoid cells) was obtained from the NIH AIDS Reagent program (Bathesda, Md.). The human hepatoblastoma cell line HepG2, human prostate carcinoma cell line PC-3, and normal fetal lung derived MRC-5 cells were obtained from the American Type Culture Collection (ATCC, Manassas, Va.).
(§3) Huh-7 cells were maintained in Dulbecco's Modified Eagle Medium (DMEM) supplemented with 10% fetal bovine serum (FBS, Hyclone, Logan, Utah), 1% non-essential amino acids (Gibco, Carlsbad, Calif.). PC-3 and HepG2 cells were adapted to grow in 0.2% galactose-containing, glucose-free Dulbecco's Modified Eagle Medium (DMEM) supplemented with 10% fetal bovine serum (FBS, Hyclone, Logan, Utah), 1% non-essential amino acids (Gibco, Carlsbad, Calif.), 1% Pyruvate (Cellgro), 1% Glutamax (Invitrogen, Carlsbad, Calif.). Galactose-adapted cells were maintained in the same culture medium. MRC-5 cells were maintained in Eagle's Minimum Essential Medium (EMEM) supplemented with 10% fetal bovine serum (FBS, Hyclone, Logan, Utah). MT-4 cells were maintained in RPMI-1640 supplemented with 10% fetal bovine serum (FBS, Hyclone, Logan, Utah). All cell culture media were also supplemented with 100 Units/mL penicillin, 100 μg/mL streptomycin (Gibco).
(§4) Using a Biotek uFlow Workstation (Biotek, Winooski, Vt.), 1500 HepG2, 1500 PC-3, 500 Huh7 or 1500 MRC-5 cells in 90 μL of culture media were dispensed into each well of black polystyrene tissue culture-treated 384-well plates. Plated cells were incubated for 24 hours in an incubator at 37° C., 5% CO2 and 90% humidity. Compound serial dilutions were performed in 100% DMSO in 384-well polypropylene (high recovery) plates on a Biomek FX Workstation (Beckman Coulter, Fullerton, Calif.). After 3-fold serial dilutions, 0.4 μL of compounds were transferred into 384-well plates containing cells using a Velocity 11 system equipped with a Bravo 384-well pipettor. The DMSO concentration in the final assay plates was 0.44% (v/v). Cells were incubated with compound(s) for five days at 37° C. Puromycin (44 μM final concentration) and DMSO (0.44%, v/v) were used as a positive and negative controls, respectively
(§5) At the end of the incubation period the cytotoxicity assay was performed as follows: Media from 384-well cell culture plates were aspirated with a Biotek EL405 plate-washer (Biotek) and cells were washed with 100 μL PBS once. Twenty microliters of Cell Titer Glo (Promega, Madison, Wis.) was added to each well of the plates with a Biotek uFlow liquid dispenser. Plates were incubated for 15 minutes at room temperature before luminescence was measured with a Perkin Elmer Envision Plate Reader (Perkin Elmer, Waltham, Mass.).
(§6) CC50 values were defined as the compound concentration that caused a 50% decrease in luminescence signal, and were calculated by non-linear regression using Pipeline Pilot software by applying a four parameter fit equation (Accelrys, San Diego, Calif.). Individual CC50 values are listed as μM concentrations.
A general note: In ATP-based viability assays light output follows the ATP content of the culture.

A short description of data set [2]: Off-target cytotoxicity, galactose-adapted PC-3 cells (Cell Titer Glo, 5 days). Particulars: human, galactose-adapted PC-3, five days incubation, intracellular ATP, read-out: CC50 GALFC3 CTG 50.
Text: as §1, with “These cells have a relatively higher sensitivity to inhibitors of mitochondrial oxidative phosphorylation compared to the same cells maintained in standard glucose-containing culture medium (Marroquin et al., Toxicol. Sci. 2007; 97 (2):539-47).” left out
(§7) The MT-4 cell line (HTLV-1 transformed, human T lymphoblastoid cells) was obtained from the NIH AIDS Reagent program (Bathesda, Md.). The human hepatoblastoma cell line HepG2, human prostate carcinoma cell line PC-3, and normal fetal lung derived MRC-5 cells were obtained from the American Type Culture Collection (ATCC, Manassas, Va.).
as §3, with “MT-4 cells were maintained in RPMI-1640 supplemented with 10% fetal bovine serum (FBS, Hyclone, Logan, Utah).” left out
as §4, with “C.” for “C. Puromycin (44 μM final concentration) and DMSO (0.44%, v/v) were used as a positive and negative controls, respectively”
as §5

Data set [3] is described as follows: Off-target cytotoxicity, MT-4 cells (Cell Titer Glo, 5 days). The settings on record: human, MT-4, five days incubation, intracellular ATP, read-out: CC50 (MT4).
Text: as §1, with “These cells have a relatively higher sensitivity to inhibitors of mitochondrial oxidative phosphorylation compared to the same cells maintained in standard glucose-containing culture medium (Marroquin et al., Toxicol. Sci. 2007; 97 (2):539-47).” left out
as §7
as §3, with “MT-4 cells were maintained in RPMI-1640 supplemented with 10% fetal bovine serum (FBS, Hyclone, Logan, Utah).” left out
For the MT-4 cytotoxicity assay, 0.4 μL of serially diluted compounds were added to 40 μl of cell maintenance media in 384-well black, solid bottom plate using a Biomek FX workstation (Beckman Coulter). Two thousand cells in 35 μL were added to each well using a Biotek uFlow Workstation (Biotek). […] Assay plates were incubated for five days at 37° C. in an incubator set at 5% CO2 and 90% humidity. After five days, 22 μL of Cell Titer Glo reagent (Promega) was added to the assay plates with a Biotek uFlow Workstation. Plates were subsequently placed on a Perkin Elmer Envision Plate Reader for five minutes before the luminescence signal was read.

The subject of data set [4] is Huh-7 cells. Description: Off-target cytotoxicity, Huh-7 cells (Cell Titer Glo, 5 days). Particulars: Huh-7, five days incubation, intracellular ATP; read-out: CC50 HEH7 CTG 50.
Text: as §1, §2, §3, §4, §5, §6

The nature of data set [5]: Off-target cytotoxicity, galactose-adapted HepG2 cells (Cell Titer Glo, 5 days). The settings on record: human, galactose-adapted HepG2, five days incubation, intracellular ATP, read-out: CC50 GALHEPG2 CTG 50.
Text: as §1, §2, §3, §4, §5, §6

Data set [6] can be described thus: Off-target cytotoxicity, Huh-7 cells (Cell Titer Glo, 5 days). The settings on record: human, Huh-7 cells; Huh-7, five days incubation, intracellular ATP; read-out: CC50 HEH7 CTG 50.
Text: as §1, §2, §3, §4, §5, §6

Data set [7] deals with MRC-5 cells. Description: Off-target cytotoxicity, MRC-5 cells (Cell Titer Glo, 5 days). The settings on record: MRC-5, five days incubation, intracellular ATP; read-out: CC50 MHCS CTG 50.
Text: as §1, §2, §3, §4, §5, §6

What is called CC50 is the concentration at which the toxic effect on the cells reaches its halfway point.

In the case of `CCCC[C@](CO)(Nc1nc(N)nc2cccnc12)C(F)(F)F` [Compound 93, (R)-2-((2-aminopyrido[3,2-d]pyrimidin-4-yl)amino)-2-(trifluoromethyl)hexan-1-ol], the CC50 at 5 days in data set [1] was found to be 38.9 µM; in data set [2], 3.63 µM; in data set [3], 18.6 µM; in data set [5] it was 7.73 µM. Moreover, the CC50 in data set [4] is 44.4 µM.

`CCCC[C@@](C)(CO)Nc1nc(N)nc2cc(F)cnc12` [Compound 64, (S)-2-((2-amino-7-fluoropyrido[3,2-d]pyrimidin-4-yl)amino)-2-methylhexan-1-ol]: the CC50 at 5 days in data set [1] came out at 6.97 µM; in data set [2] it was 1.99 µM; in data set [3], 6.79 µM; in data set [6], 10.4 µM; in data set [5], 3.56 µM.

For the compound `CCCC[C@](C)(CO)Nc1nc(N)nc2cc(F)cnc12` [Compound 98, (R)-2-((2-amino-7-fluoropyrido[3,2-d]pyrimidin-4-yl)amino)-2-methylhexan-1-ol], the 50% cytotoxic concentration (CC50) at 5 days in data set [1] amounted to 24.4 µM; in data set [2], 4.53 µM; in data set [3], 16.2 µM; in data set [6] it was 21.9 µM; in data set [5], 6.7 µM.

Consider `CCCC[C@](C)(CNC(C)=O)Nc1nc(N)nc2cc(F)cnc12` [Compound 101, (R)—N-(2-((2-amino-7-fluoropyrido[3,2-d]pyrimidin-4-yl)amino)-2-methylhexyl)acetamide], for which the CC50 in data set [7] and in data set [4] was 44.4 µM throughout. For the same compound, the CC50 at 5 days in data set [2] is 44.4 µM; in data set [3], 56.6 µM; in data set [5] it was no less than 44.4 µM.

Regarding `CCCC[C@@](C)(Nc1nc(N)nc2cccnc12)C(C)O` (single isomer, unassigned) [Compound 97], the cytotoxic concentration (CC50) in data set [7] and in data set [4] was 44.4 µM in each case. The CC50 at 5 days came to 27.5 µM in data set [2], 30 µM in data set [3] and 33 µM in data set [5].

As to `CCCC[C@@H](Nc1nc(N)nc2cc(F)cnc12)C(O)CF` (stereo partly drawn) [Compound 102, (3R)-3-((2-amino-7-fluoropyrido[3,2-d]pyrimidin-4-yl)amino)-1-fluoroheptan-2-ol], the CC50 in data set [7] and in data set [4] was 44.4 µM in each case. Further, the CC50 at 5 days in data set [2] was determined as 19.1 µM; in data set [3] it was 57.1 µM; in data set [5], 27.4 µM.

With `CCCC[C@H](CO)Nc1nc(N)nc2cc(F)cnc12` [Compound 44, (R)-2-((2-amino-7-fluoropyrido[3,2-d]pyrimidin-4-yl)amino)hexan-1-ol], the CC50 at 5 days in data set [1] stood at 3.72 µM; in data set [2], 0.52 µM; in data set [3], 1.97 µM; in data set [6] it was 9.64 µM; in data set [5] it was 1.07 µM.

For `CCCC[C@H](CO)Nc1nc(N)nc2cccnc12` [Compound 15, (R)-2-((2-aminopyrido[3,2-d]pyrimidin-4-yl)amino)hexan-1-ol], the CC50 at 5 days in data set [1] was 7.6 µM; in data set [2] it was 0.69 µM; in data set [3] it was 8.62 µM; in data set [6], 19.7 µM; in data set [5] it was 1.23 µM.

As to `CCCC[C@@](C)(Nc1nc(N)nc2cc(F)cnc12)C(C)O` (single isomer, unassigned) [Compound 95], in data set [7], the half-maximal cytotoxic concentration (CC50) worked out at 44.4 µM. Moreover, the CC50 at 5 days in data set [2] turned out to be 16.8 µM; in data set [3], 44.1 µM; in data set [6] it was 31.3 µM; in data set [5], 28.1 µM.
